Test results as given in patent US8569350B2, “Anti-mitotic anti-proliferative compounds” (Rutgers, The State University of New Jersey, priority 2004, dated 2013).

Key:
[1] = test system: NCI-H522 cells associated with non-small cell lung cancer; experiment: NCI DTP cancer cell growth inhibition, NCI-H522; type: cell-based; settings: a large negative number denotes stronger activity
Experimental: (§1) A detailed evaluation of cancer cell growth inhibition effect for T111-T115 was conducted by the NIH-National […] (NCI) Developmental Therapeutic Program (DTP) (FIG. 4). A large negative number denotes stronger activity.

[2] = test system: NCI-H322M cells associated with non-small cell lung cancer; experiment: NCI DTP cancer cell growth inhibition, NCI-H322M; type: cell-based; settings: a large negative number denotes stronger activity
Experimental: as §1

60-cell line panel = experiment: NCI DTP cancer cell growth inhibition, 60-cell line panel overall; type: cell-based; settings: across the 60-cell line panel
Experimental: as §1

[3] = test system: EKVX cells associated with non-small cell lung cancer; experiment: NCI DTP cancer cell growth inhibition, EKVX; type: cell-based; settings: a large negative number denotes stronger activity
Experimental: as §1

Row | Compound | melting point [°C] | growth inhibition (log 10GI50) [1] | growth inhibition (log 10GI50) [2] | overall growth inhibition performance (60-cell line panel) | growth inhibition (log 10GI50) [3]
1 | COc1ccc(-n2cnnc2-c2cc(OC)c(OC)c(OC)c2)cc1O [Compound T113, 3-(3,4,5-trimethoxyl)phenyl-4-(3-hydroxyl, 4-methoxyl)phenyl-1,2,4(H)triazole] | 197 to 198 | – | – | – | –
2 | COc1ccc(-n2cnnc2-c2cc(OC)c(OC)c(OC)c2)cc1F | 151 to 152 | – | – | – | –
3 | COc1cc(-c2nncn2-c2ccc(N(C)C)cc2)cc(OC)c1OC [Compound T112, 3-(3,4,5-trimethoxyl)phenyl-4-(N,N-dimethylamino) phenyl-1,2,4(H)triazole] | 145 to 147 | – | – | – | –
4 | COc1ccc(-n2cnnc2-c2cc(OC)c(OC)c(OC)c2)cc1 [Compound T111, 3-(3,4,5-trimethoxyl)phenyl-4-(4-methoxyl)phenyl-1,2,4(H)triazole] | 163 to 165 | – | – | – | –
5 | COc1cc(-c2nncn2-c2ccc3c(ccn3C)c2)cc(OC)c1OC [Compound T115] | 157 to 159 | < −8.00 | < −8.00 | performed uniformly well | < −8.00
